The values that follow are results of earlier work, collected in US6335361B1, “Method of treating benign forgetfulness” (Juvenon Inc., priority 1999, dated 2002).

Molecules are shown by their SMILES. Read-outs that look alike come from different tables or passages of the source.

Data set [1] concerns mitochondria.
In data set [2] the test system is aged rats.
Data set [3] concerns rats.
For data set [4] the following is noted: woman deficient in Q10, 150 mg/kg.
Data set [5] has as its system striatal nerves. Particulars: mice, Q10 diet four weeks before and one week after MPTP.
Data set [6] relates to mitochondria. As to conditions: through action in the mitochondria.
Data set [7] has as its system human plasma LDL phospholipids. Particulars: healthy Finnish men and women, Q10 supplementation.
The conditions of data set [8]: daily supplements up to 200 mg for 6-12 months and 100 mg daily for up to 6 y.
The subject of data set [9] is oxidative phosphorylation in skeletal muscles and brains. Particulars: patients with mitochondrial cytopathies due to enzyme defects.
Data set [10] relates to mice. Particulars: male mice, life-long supplementation.
Data set [11] relates to cardiac tissue.
Data set [12] concerns human lymphocytes.
The subject of data set [13] is oxidant production. As to conditions: carnitine supplementation.
Data set [14] has as its system phosphocreatine (PCr).
The conditions of data set [15]: men over 60, 5 days.
For data set [16] the following is noted: older adults 67-80 years, 8 weeks.

Take `C[N+](C)(C)C[C@H](O)CC(=O)[O-]` [L-carnitine]: in data set [1], the “age-related decrease in cardiolipin, mtDNA transcription and membrane potential” value is “reverse”; the “age-related dysfunction of carnitine-acetyl-carnitine exchange across the inner mitochondrial membrane” value is given as “slow or reverse”.
For `O=C(O)CCCC[C@@H]1CCSS1` [R-α-alipoic acid, R-α-lipoic acid], in data set [2] (aged rats), the “ambulatory activity of aged rats” value is reported as “triple”. In [2] (rat, in vivo), the “age-related decline in mitochondrial membrane potential” value is given as “restore”; the “age-related decrease in oxygen consumption” value is “reverse”; the “age-related increase in oxidants” value is given as “significantly lower”; the “glutathione and ascorbic acid levels” value is given as “to youthful levels”.
As to `COC1=C(OC)C(=O)C(C/C=C(\C)CC/C=C(\C)CC/C=C(\C)CC/C=C(\C)CC/C=C(\C)CC/C=C(\C)CC/C=C(\C)CC/C=C(\C)CC/C=C(\C)CCC=C(C)C)=C(C)C1=O` [Q10, Coenzyme Q10], in [3] (Q10 supplementation), the “Q10 levels in kidney, heart and brain” value was “not affected”. Also, the lifespan result in data set [3] (male rats, life-long supplementation) is reported as “did not prolong or shorten”; in data set [10] it was “did not prolong or shorten”. Also, in data set [3] (supplemented rats), the “plasma and liver levels” value is recorded as 2.6-8.4 times higher. The clinical response entry in [4] is “rapidly improved”. Moreover, in data set [5], the “dopamine, higher than control diet” value is recorded as 37%. In [5], the “more dense neurons than control diet” value was 62%. In addition, in [6], the “programmed cell death, or apoptosis” value is listed as “appears to block”. Besides, in data set [7], the peroxyl radical-trapping capacity entry was “doubled”. In data set [8], the adverse effects entry is given as “No important adverse effects”. Further, the “oxidative phosphorylation in skeletal muscles and brains” value in [9] is listed as “marked improvement”. Besides, the “effect on doxorubicin-induced oxidant production and mtDNA deletions” value in [11] (cardiac tissue) is reported as “blocks the effects of doxorubicin”.
As for `COc1c(O)c(C)c(C/C=C(\C)CC/C=C(\C)CC/C=C(\C)CC/C=C(\C)CC/C=C(\C)CC/C=C(\C)CC/C=C(\C)CC/C=C(\C)CC/C=C(\C)CCC=C(C)C)c(O)c1OC` [ubiquinol-10], in data set [12], the “oxidative damage to DNA of human lymphocytes” value is given as “appears to protect”.
For the compound `CC(=O)O[C@H](CC(=O)[O-])C[N+](C)(C)C` [ALC, acetyl-L-carnitine], in data set [1], the “age-related decrease in cardiolipin, mtDNA transcription and membrane potential” value is “reverse”; the “age-related dysfunction of carnitine-acetyl-carnitine exchange across the inner mitochondrial membrane” value is given as “slow or reverse”.
In the case of `COc1cccc2c1C(=O)c1c(O)c3c(c(O)c1C2=O)C[C@@](O)(C(=O)CO)C[C@@H]3O[C@H]1C[C@H](N)[C@H](O)[C@H](C)O1` [doxorubicin], in data set [11] (doxorubicin by itself), the mitochondrial oxidant production entry was “stimulates” and the “mtDNA deletions in cardiac tissue” value is “marked increase”.
With `C[N+](C)(C)CC(O)CC(=O)[O-]` (stereo not drawn) [carnitine], in data set [13], the cell antioxidants result was “decreased cell antioxidants markedly” and the “increase of oxidant production” value is 30%.
As for `CN(CC(=O)O)C(=N)N` [creatine], the safety entry (1.5 g-25 g/day for at least a year) is reported as “safe”. Moreover, the adverse effects entry (athletes, up to 75 grams a day for years, aside from weight gain) was “without known adverse effects”. Besides, the “skeletal muscle strength and endurance” value (older individuals (40-73), 20 g/day, one week) is given as “increased”. Moreover, the time to exhaustion entry in [14] (both groups combined) is reported as “increased”. Besides, the “increase of resting PCr” value in [14] (middle-aged group (50-year-olds), P<0.05) is 30%. The “mean initial PCr resynthesis rate” value in data set [14] (middle-aged group, P<0.05) is listed as “increased significantly”. Also, the “increase of resting PCr” value in data set [14] (young group (30-year-olds), P<0.05) is recorded as 15%. In data set [15], the “isokinetic performance and body mass” value was “only small increases”; the isometric strength entry is “no effect”. Also, the “1- and 12-repetitions maxima, effect of creatine supplementation” value in [16] is “no beneficial effect”.
